Measurements reported in patent publication US20260053764A1, “COMPOSITION FOR PREVENTING DETERIORATION IN COGNITIVE FUNCTION AND/OR IMPROVING COGNITIVE FUNCTION” (PHARMA FOODS INTERNATIONAL CO., LTD., priority 2020, published 2026).

Tested on: health-associated QOL in a human
Experiment: SF-36 health-associated QOL assessment in clinical tests A and B
Assay type: in vivo
Design: key to General health / Vitality / Mental health: SF-36 subscale score; higher score = better health state
Conditions: for Everyday role function (mental) / Everyday role function (physical) / General health / Mental health / Physical function / Vitality: mean ± SD
Text: SF-36 is known as a QOL assessment method associated with health, wherein SF-36 (MOS 36-Item Short-Form Health Survey) is a self-report type health state questionnaire that can rate eight health concepts (physical function, everyday role function (physical), body pain, general health, vitality, social function, everyday role function (mental) and mental health) as scores. A high score of each health concept (subscale) in SF-36 is interpreted as shown below. • Physical function . . . Capable of carrying out every type of activity including vigorous activity. • Everyday role function (physical) . . . There was no physical problem when carrying out work or normal activity during the past month. • Body pain . . . There was no body pain at all during the past month and usual work was not interfered by body pain at all. • General health . . . Health state is very good. • Vitality . . . Always full of energy during the past month. • Social life function . . . The usual social interactions with family, friends, neighbors and other companions were not at all interfered by any physical or psychological reason. • Everyday role function (mental) . . . There was no psychological problem when carrying out work or normal activity during the past month. • Mental health . . . The subject was in a calm, happy and peaceful mood during the past month.
Two types of placebo-controlled randomized double-blind two-group parallel comparison tests were carried out as clinical tests. […] Specifically, capsules comprising 100 mg of dextrin per capsule were used as the placebo food.
The screening examination was carried out to select 60 subjects for each test (a total of 120 subjects). MMSE (Mini Mental State Examination) is an examination for assessing the degree of progression of dementia or the like based on the score thereof with 30 as the perfect score, wherein dementia is suspected with a score of 23 or lower.
The total of 120 subjects were randomly divided into test A active group, test A placebo group, test B active group and test B placebo group with 30 subjects in each group. Each subject of the test A active group ingested two capsules of the active food, each subject of the test A placebo group ingested two capsules of the placebo food, each subject of the test B active group ingested one capsule of the active food and each subject of the test B placebo group ingested one capsule of the placebo food.
Each subject followed the schedule shown in the table below and ingested one or two of the assigned capsules together with water for 12 weeks from two weeks after the initial screening examination. All subjects had no particular instruction during the ingestion period and freely took their meals.
In addition, SF-36 was practiced as health-associated QOL assessment. Regarding SF-36, examination was carried out a total of four times, which are before starting test food ingestion, after four weeks of ingestion, after eight weeks of ingestion and after twelve weeks of ingestion.

[1] = test A 200 mg, before ingestion
[2] = test B 100 mg, before ingestion

NCCCC(=O)O [GABA, γ-aminobutyric acid]
Body pain: difference between active food and placebo food groups (test A 200 mg, 4 W): −2.1
Everyday role function (mental): difference between active food and placebo food groups (test A 200 mg, 4 W): 1.9
Everyday role function (physical): difference between active food and placebo food groups (test A 200 mg, 4 W): 2.8
General health: difference between active food and placebo food groups (test A 200 mg, 4 W): 0.1
Mental health: difference between active food and placebo food groups (test A 200 mg, 4 W): 3.6
Physical function: difference between active food and placebo food groups (test A 200 mg, 4 W): 0.4
Social life function: difference between active food and placebo food groups (test A 200 mg, 4 W): 1.1
Vitality: difference between active food and placebo food groups (test A 200 mg, 4 W): 5.5
Everyday role function (mental) (test A 200 mg, 4 w): 53.4 ± 6.0
Everyday role function (physical) (test A 200 mg, 4 w): 54.3 ± 3.5
General health (test A 200 mg, 4 w): 57.2 ± 7.9
Mental health (test A 200 mg, 4 w): 56.0 ± 6.7
Physical function (test A 200 mg, 4 w): 53.8 ± 6.2
Vitality (test A 200 mg, 4 w): 56.1 ± 7.3
Body pain: difference between active food and placebo food groups (test A 200 mg, 8 W): −2.9
Everyday role function (mental): difference between active food and placebo food groups (test A 200 mg, 8 W): 1.1
Everyday role function (physical): difference between active food and placebo food groups (test A 200 mg, 8 W): 3.3
General health: difference between active food and placebo food groups (test A 200 mg, 8 W): 2.5
Mental health: difference between active food and placebo food groups (test A 200 mg, 8 W): 3.5
Physical function: difference between active food and placebo food groups (test A 200 mg, 8 W): −0.7
Social life function: difference between active food and placebo food groups (test A 200 mg, 8 W): 0.9
Vitality: difference between active food and placebo food groups (test A 200 mg, 8 W): 4.8
Everyday role function (mental) (test A 200 mg, 8 w): 52.7 ± 5.7
Everyday role function (physical) (test A 200 mg, 8 w): 53.8 ± 4.0
General health (test A 200 mg, 8 w): 58.4 ± 7.4
Mental health (test A 200 mg, 8 w): 56.3 ± 7.3
Physical function (test A 200 mg, 8 w): 53.8 ± 6.1
Vitality (test A 200 mg, 8 w): 55.6 ± 8.3
Body pain: difference between active food and placebo food groups (test A 200 mg, 12 W): −0.3
Everyday role function (mental): difference between active food and placebo food groups (test A 200 mg, 12 W): 1.5
Everyday role function (physical): difference between active food and placebo food groups (test A 200 mg, 12 W): 2.1
General health: difference between active food and placebo food groups (test A 200 mg, 12 W): 0.2
Mental health: difference between active food and placebo food groups (test A 200 mg, 12 W): 3.5
Physical function: difference between active food and placebo food groups (test A 200 mg, 12 W): −1.0
Social life function: difference between active food and placebo food groups (test A 200 mg, 12 W): −1.1
Vitality: difference between active food and placebo food groups (test A 200 mg, 12 W): 5.4
Everyday role function (mental) (test A 200 mg, 12 w): 53.7 ± 5.4
Everyday role function (physical) (test A 200 mg, 12 w): 54.2 ± 4.2
General health (test A 200 mg, 12 w): 58.4 ± 6.5
Mental health (test A 200 mg, 12 w): 57.0 ± 5.9
Physical function (test A 200 mg, 12 w): 53.6 ± 7.2
Vitality (test A 200 mg, 12 w): 57.1 ± 6.7
Body pain: difference between active food and placebo food groups [1]: −0.7
Everyday role function (mental): difference between active food and placebo food groups [1]: −0.1
Everyday role function (physical): difference between active food and placebo food groups [1]: 1.3
General health: difference between active food and placebo food groups [1]: 0.0
Mental health: difference between active food and placebo food groups [1]: 0.3
Physical function: difference between active food and placebo food groups [1]: 0.5
Social life function: difference between active food and placebo food groups [1]: 2.1
Vitality: difference between active food and placebo food groups [1]: 2.9
Everyday role function (mental) [1]: 52.6 ± 6.3
Everyday role function (physical) [1]: 54.2 ± 4.3
General health [1]: 57.4 ± 7.4
Mental health [1]: 54.1 ± 8.4
Physical function [1]: 53.0 ± 6.1
Vitality [1]: 54.6 ± 7.6
scores regarding everyday role function (physical), GABA group compared to the placebo group (test A, after eight weeks of ingestion): significant improvement
scores regarding emotional health, GABA group compared to the placebo group (test A, after four weeks of ingestion): significant improvement
scores regarding energy, GABA group compared to the placebo group (test A, at least after four weeks of ingestion): significant improvement
Body pain: difference between active food and placebo food groups (test B 100 mg, 4 W): −0.3
Everyday role function (mental): difference between active food and placebo food groups (test B 100 mg, 4 W): 1.5
Everyday role function (physical): difference between active food and placebo food groups (test B 100 mg, 4 W): 2.3
General health: difference between active food and placebo food groups (test B 100 mg, 4 W): 1.2
Mental health: difference between active food and placebo food groups (test B 100 mg, 4 W): 3.3
Physical function: difference between active food and placebo food groups (test B 100 mg, 4 W): 1.8
Social life function: difference between active food and placebo food groups (test B 100 mg, 4 W): 0.9
Vitality: difference between active food and placebo food groups (test B 100 mg, 4 W): 3.0
Everyday role function (mental) (test B 100 mg, 4 w): 53.0 ± 5.5
Everyday role function (physical) (test B 100 mg, 4 w): 53.8 ± 4.2
General health (test B 100 mg, 4 w): 58.3 ± 7.4
Mental health (test B 100 mg, 4 w): 55.8 ± 5.8
Physical function (test B 100 mg, 4 w): 55.2 ± 3.7
Vitality (test B 100 mg, 4 w): 53.7 ± 7.6
Body pain: difference between active food and placebo food groups (test B 100 mg, 8 W): 0.9
Everyday role function (mental): difference between active food and placebo food groups (test B 100 mg, 8 W): 2.1
Everyday role function (physical): difference between active food and placebo food groups (test B 100 mg, 8 W): 3.4
General health: difference between active food and placebo food groups (test B 100 mg, 8 W): 1.2
Mental health: difference between active food and placebo food groups (test B 100 mg, 8 W): 3.3
Physical function: difference between active food and placebo food groups (test B 100 mg, 8 W): 2.2
Social life function: difference between active food and placebo food groups (test B 100 mg, 8 W): 3.2
Vitality: difference between active food and placebo food groups (test B 100 mg, 8 W): 4.0
Everyday role function (mental) (test B 100 mg, 8 w): 53.7 ± 3.9
Everyday role function (physical) (test B 100 mg, 8 w): 53.9 ± 3.5
General health (test B 100 mg, 8 w): 57.2 ± 7.5
Mental health (test B 100 mg, 8 w): 56.1 ± 5.8
Physical function (test B 100 mg, 8 w): 56.6 ± 2.4
Vitality (test B 100 mg, 8 w): 54.8 ± 7.2
Body pain: difference between active food and placebo food groups (test B 100 mg, 12 W): 1.8
Everyday role function (mental): difference between active food and placebo food groups (test B 100 mg, 12 W): 1.7
Everyday role function (physical): difference between active food and placebo food groups (test B 100 mg, 12 W): 1.0
General health: difference between active food and placebo food groups (test B 100 mg, 12 W): 1.0
Mental health: difference between active food and placebo food groups (test B 100 mg, 12 W): 2.9
Physical function: difference between active food and placebo food groups (test B 100 mg, 12 W): 1.3
Social life function: difference between active food and placebo food groups (test B 100 mg, 12 W): 0.6
Vitality: difference between active food and placebo food groups (test B 100 mg, 12 W): 2.8
Everyday role function (mental) (test B 100 mg, 12 w): 53.9 ± 4.3
Everyday role function (physical) (test B 100 mg, 12 w): 53.1 ± 4.2
General health (test B 100 mg, 12 w): 59.2 ± 6.2
Mental health (test B 100 mg, 12 w): 56.4 ± 5.6
Physical function (test B 100 mg, 12 w): 55.9 ± 3.1
Vitality (test B 100 mg, 12 w): 54.5 ± 7.4
Body pain: difference between active food and placebo food groups [2]: 1.3
Everyday role function (mental): difference between active food and placebo food groups [2]: 1.0
Everyday role function (physical): difference between active food and placebo food groups [2]: 0.7
General health: difference between active food and placebo food groups [2]: 0.1
Mental health: difference between active food and placebo food groups [2]: 2.7
Physical function: difference between active food and placebo food groups [2]: 3.0
Social life function: difference between active food and placebo food groups [2]: 3.7
Vitality: difference between active food and placebo food groups [2]: 2.7
Everyday role function (mental) [2]: 53.7 ± 4.7
Everyday role function (physical) [2]: 53.5 ± 3.9
General health [2]: 57.5 ± 7.1
Mental health [2]: 56.5 ± 5.4
Physical function [2]: 55.6 ± 3.5
Vitality [2]: 54.4 ± 7.6
scores regarding physical function, GABA group compared to the placebo group (test B, after eight weeks of ingestion): significant improvement
